Values of other authors in US20070092575A1, “Compositions for administering RNAIII-inhibiting peptides” (priority 2005, published 2007).
Read-outs that look alike come from different tables or passages of the source. Ends that are not written are not given here.

How the values were obtained:
S. aureus 8325-4 = conditions: Keratitis, rabbit, strain 8325-4, +RIP
S. aureus LS-1 [1] = conditions: Arthritis, mouse, strain LS-1, +RIP
[2] = tested on: MRSA, MRSE, VISA, VISE, GISA, GISE, MSSA, MSSE; conditions: Graft injection, rat, +RIP
[3] = tested on: S. aureus strain Smith diffuse; conditions: Cellulitis/sepsis, mouse, +RIP
[4] = tested on: S. aureus Newbould 305, AE-1; conditions: Mastitis, cow, strain Newbould/AE-1, +RIP
S. aureus LS-1 [5] = conditions: Sepsis, mouse, strain LS-1, +RIP
S. aureus MS = conditions: Osteomyelitis, rabbit, strain MS, +RIP

YSPWTNF(-NH2) (YSPWTNF-NH2) [RIP, amide form of a synthetic RIP analogue]
% animals disease free (S. aureus 8325-4): 40%
% animals disease free (S. aureus LS-1 [1]): 60%
% animals disease free [2]: Up to 100%
% animals disease free [3]: Up to 100%
% animals disease free [4]: 70-100%
% animals disease free (S. aureus LS-1 [5]): 44%
% animals disease free (S. aureus MS): 58%
